In US20250388568A1, “NLRP3 INHIBITORS” (Kodiak Sciences Inc., priority 2022, published 2025):

Tests used:
[1] = system: IL-1β release in THP-1-ASC-GFP cells after NLRP3 activation; assay: IC50 determination of IL-1β release inhibition in THP-1-ASC-GFP cells; format: cell-based; conditions: THP1-ASC-GFP; THP-1-ASC-GFP cells, LPS priming 4 h, nigericin; average of at least three experiments; read-out: IL-1β IC50 (nM) THP1 cells
Procedure: Example 78: IC50 Determination of IL-1β Release Inhibition in THP-1-ASC-GFP Cells The compounds were tested for their ability to inhibit the IL-1β release in the THP-1-ASC-GFP cells after NLRP3 activation. THP1-ASC-GFP cells (Invivogen […] thawed following Invivogen's initial culture procedure. […] The growth medium was composed of RPM1640 medium (Gibco 32404-014), 10% heat inactivated (HI) serum (Gibco A3840102), Pen/Strep (Quality Biologics 118-089-721), 10 mM Hepes (Quality Biologics 118-089-721), 2 mM Glutamax (GIBCO 35050-061), 100 μg/mL normocin (Invivogen ant-nr), 100 μg/mL Zeocin (Invivogen ant-zn). The growth medium was freshly prepared once a week and sterile filtered. Assay medium consisted of RPMI 1640 medium, 10 mM Hepes, 2 mM Glutamax and Pen/Strep. To the assay medium, 1 μg/mL LPS (Invivogen tlrl-3pelps) was added. A cell suspension was prepared with assay medium and LPS at 1.25M cells per mL. With an electronic pipet, 80 μl of cell suspension was added to U bottom 96 well polystyrene plates (VWR 10062-902) leaving columns 1 and 2 empty. The plates were placed in the incubator for 4 hours. […] DMSO). An hour prior to the end of LPS incubation, a separate 96 deep well plate, Plate B, was prepared with 400 μL of assay media per well, then 2 μL of the stock DMSO solution from Plate A was added to each corresponding well. Plate B was covered to avoid media evaporation. In a 50 mL tube, a solution of nigericin in assay media at […] concentration was prepared. To a new 96 deep well plate, Plate C, 200 μL of this nigericin containing media was dispensed to each well and […] of the test compounds from Plate A to each corresponding well was added. Plate C was covered to avoid media evaporation. After 4 hours of priming, all the media from the LPS treated THP-1 cells in the initial U bottom plate was removed manually. To this plate of primed cells, 80 μL/well test compounds from Plate B was added in duplicate columns (5 compounds tested per plate). The plate was placed in an incubator for 30 min. […] The plate was placed back in the incubator for 1 hour. At the end of 1 hour, the supernatant from this test plate was transferred to a new 96 well V bottom polypropylene plate which was frozen immediately at -80° C. The plate was transferred to -20° C. the next day and awaiting further determination of cytokine IL-1β level. The release of IL-1β into the cell media was determined by MSD® Multi-Spot Assay System (V-Plex, IL-1B kit, […]-4). Following the manufacture's protocol and using the Alternate Protocol 3, Dilute-In-Plate protocol specifically, the level of IL-1β in the above collected supernatant plate was measured as electrochemiluminescent signals. Using MSD DISCOVERY WORKBENCH® analysis software, the signals were converted to the concentration of IL-1β in each well. The IC50 values of the compounds were calculated using the Graph Pad Prism software based on the […] concentration determined. The detection range of IL-1β using MSD kit was approximately […] (based on various lots of standards purchased from MSD).

[2] = system: IL-1β release in U937 cells after NLRP3 activation; assay: IC50 determination of IL-1β release inhibition in U937 cells; format: cell-based; conditions: Homo sapiens, U-937; PMA-differentiated U937 cells, LPS priming 5 h, nigericin; average of at least three experiments; read-out: IL-1β IC50 (nM) U937 cells
Procedure: Example 79: IC50 Determination of IL-1β Release Inhibition in U937 Cells The compounds of the present disclosure were tested for their ability to inhibit the IL-1β release in the U937 cells after NLRP3 activation. U937 cells (U-97 CRL 1593.2) were thawed following ATCC's initial culture procedure. […] The growth medium was composed of RPMI1640 medium (Quality Biological 112-040-101), 10% serum (Corning 35-076-CV), Pen/Strep (GIBCO 15140-122), 10 mM Hepes (Quality Biological 118-089-721), 2 mM Glutamax (GIBCO 35050-061), and 100 μg/mL normocin (Invivogen ant-nr)-Differentiating media was prepared by adding Phorbol 12-myristate 13-acetate (PMA) (AdipoGen AG-CN2-0010-M005) to growth medium. A cell suspension was prepared with differentiating media at 500k cells/ml. With an electronic pipet, 200 ul of cell suspension was added to each well (96w white plate Corning 3903) leaving columns 1 and 2 empty. Plates were left in the biosafety cabinet for 15 min and then placed in incubator for 90 hours. Priming media was prepared with assay medium consisting of RPMI 1640 medium, 10 mM Hepes, 2 mM Glutamax and Pen/Strep plus 1 μg/mL LPS (Invivogen tlrl-3pelps). Differentiating media was manually removed and 80 ul of priming media was added to each well with an electronic pipet. The plates were placed in the incubator for 5 hours. […] DMSO). An hour prior to the end of LPS incubation, a separate 96 deep well plate, Plate B, was prepared with 400 μL of assay media per well, then […] of the stock DMSO solution from Plate A was added to each corresponding well. Plate B was covered to avoid media evaporation. In a 50 mL tube, a solution of nigericin in assay media at 50 uM/mL concentration was prepared. To a new 96 deep well plate, Plate C, 200 μL of this nigericin containing media was dispensed to each well and 1 μL of the test compounds from Plate B to each corresponding well was added. Plate C was covered to avoid media evaporation. After 5 hours of priming, all the media from the LPS treated U937 cells was removed manually. To this plate of primed cells, 80 μL/well test compounds from Plate B (assay media+compound) was added in duplicate columns (5 compounds tested per plate). The plate was placed in an incubator for 30 min. […] The plate was placed back in the incubator for 1 hour. At the end of 1 hour, the supernatant from this test plate was transferred to a new 96 well V bottom polypropylene plate which was frozen immediately at -80° C. The plate was transferred to -20° C. the next day and awaited further determination of cytokine IL-Ip level. The release of IL-1β into the cell media was determined by MSD® Multi-Spot Assay System (V-Plex, IL-1B kit, […]-4). Following the manufacture's protocol and using the Alternate Protocol 3, Dilute-In-Plate protocol specifically, the level of IL-IP in the above collected supernatant plate was measured as electrochemiluminescent signals. Using MSD DISCOVERY WORKBENCH® analysis software, the signals were converted to the concentration of IL-1β in each well. The IC50 values of the compounds were calculated using the Graph Pad Prism software based on the IL-1β concentration determined. The detection range of IL-1β using MSD kit was approximately […] (based on various lots of standards purchased from MSD).

Row | IC50 [1] | IC50 [2] | SMILES
1 | 50 to 500 nM | 50 to 500 nM | Cc1oc([S@@](=N)(=O)NC(=O)Nc2c3c(cc4c2CCC4)CCC3)cc1CNC(C)C (single isomer, unassigned) [Example 26, formic acid]
2 | 50 to 500 nM | 50 to 500 nM | CNCc1coc([S@](=N)(=O)NC(=O)Nc2c3c(cc4c2CCC4)CCC3)c1 (single isomer, unassigned) [Example 75]
3 | < 5 nM | < 5 nM | CNCc1coc([S@@](=N)(=O)NC(=O)Nc2c3c(cc4c2CCC4)CCC3)c1 (single isomer, unassigned) [Example 76]
4 | < 5 nM | 5 to 50 nM | N=S(=O)(NC(=O)Nc1c2c(cc3c1CCC3)CCC2)c1cc(CN2CC(O)C2)co1 (stereo not shown) [Example 1, N-((1,2,3,5,6,7-hexahydro-s-indacen-4-yl)carbamoyl)-4-((3-hydroxyazetidin-1-yl)methyl)furan-2-sulfonimidamide]
5 | < 5 nM | 5 to 50 nM | Cc1oc(S(=N)(=O)NC(=O)Nc2c3c(cc4c2CCC4)CCC3)cc1CN1CC[C@H](CO)C1 (stereo partly drawn) [Example 6, N-((1,2,3,5,6,7-hexahydro-s-indacen-4-yl)carbamoyl)-4-(((S)-3-(hydroxymethyl)pyrrolidin-1-yl)methyl)-5-methylfuran-2-sulfonimidamide]
6 | < 5 nM | < 5 nM | Cc1oc(S(=N)(=O)NC(=O)Nc2c3c(cc4c2CCC4)CCC3)cc1CN1CCC[C@@H]1CO (stereo partly drawn) [Example 7, N-((1,2,3,5,6,7-hexahydro-s-indacen-4-yl)carbamoyl)-4-(((R)-2-(hydroxymethyl)pyrrolidin-1-yl)methyl)-5-methylfuran-2-sulfonimidamide]
7 | – | 50 to 500 nM | CC(C)n1nc(S(=N)(=O)NC(=O)Nc2c3c(cc4c2CCC4)CCC3)cc1CN (stereo not shown) [Example 77, 5-(aminomethyl)-N-((1,2,3,5,6,7-hexahydro-s-indacen-4-yl)carbamoyl)-1-isopropyl-1H-pyrazole-3-sulfonimidamide]

Second part, the compound before the results:

Row | SMILES | IC50 [1] | IC50 [2]
8 | Cc1oc(S(=N)(=O)NC(=O)Nc2c3c(cc4c2CCC4)CCC3)cc1CNC(C)C (single isomer, unassigned) [Example 27, N-((1,2,3,5,6,7-hexahydro-s-indacen-4-yl)carbamoyl)-4-((isopropylamino)methyl)-5-methylfuran-2-sulfonimidamide] | < 5 nM | < 5 nM
9 | Cc1oc([S@@](=N)(=O)NC(=O)Nc2c3c(c(F)c4c2CCC4)CCC3)cc1CNC(C)C (single isomer, unassigned) [Example 28] | 50 to 500 nM | 50 to 500 nM
10 | Cc1oc([S@](=N)(=O)NC(=O)Nc2c3c(c(F)c4c2CCC4)CCC3)cc1CNC(C)C (single isomer, unassigned) [Example 29] | < 5 nM | < 5 nM
11 | CC(C)NCc1coc([S@@](=N)(=O)NC(=O)Nc2c3c(c(F)c4c2CCC4)CCC3)c1 (single isomer, unassigned) [Example 30] | 50 to 500 nM | > 500 nM
12 | CC(C)NCc1coc([S@](=N)(=O)NC(=O)Nc2c3c(c(F)c4c2CCC4)CCC3)c1 (single isomer, unassigned) [Example 31] | < 5 nM | < 5 nM
13 | CN(CC1(O)CCC1)C(=O)c1coc(S(=N)(=O)NC(=O)Nc2c3c(cc4c2CCC4)CCC3)c1 (stereo not shown) [Example 4, 5-(N-((1,2,3,5,6,7-hexahydro-s-indacen-4-yl)carbamoyl)sulfamidimidoyl)-N-((1-hydroxycyclobutyl)methyl)-N-methylfuran-3-carboxamide] | < 5 nM | < 5 nM
14 | Cc1oc(S(=N)(=O)NC(=O)Nc2c3c(cc4c2CCC4)CCC3)cc1CN1CC[C@@H](CO)C1 (stereo partly drawn) [Example 5, N-((1,2,3,5,6,7-hexahydro-s-indacen-4-yl)carbamoyl)-4-(((R)-3-(hydroxymethyl)pyrrolidin-1-yl)methyl)-5-methylfuran-2-sulfonimidamide] | < 5 nM | < 5 nM
15 | CC(C)n1nc(S(=O)(=O)NC(=O)Nc2c3c(c(F)c4c2CCC4)CCC3)cc1CN1CC[C@H](O)C1 [Example 67, (S)—N-((8-fluoro-1,2,3,5,6,7-hexahydro-s-indacen-4-yl)carbamoyl)-5-((3-hydroxypyrrolidin-1-yl)methyl)-1-isopropyl-1H-pyrazole-3-sulfonamide] | – | 5 to 50 nM
16 | CN(Cc1cc(S(=O)(=O)NC(=O)Nc2c3c(c(Cl)c4c2CCC4)CCC3)nn1C)CC1(O)CCC1 [Example 68, N-((8-chloro-1,2,3,5,6,7-hexahydro-s-indacen-4-yl)carbamoyl)-5-((((1-hydroxycyclobutyl)methyl)(methyl)amino)methyl)-1-methyl-1H-pyrazole-3-sulfonamide] | – | 5 to 50 nM
17 | CC(C)n1nc(S(=O)(=O)NC(=O)Nc2c3c(c(Cl)c4c2CCC4)CCC3)cc1CN(C)CC1(O)CCC1 [Example 69, N-((8-chloro-1,2,3,5,6,7-hexahydro-s-indacen-4-yl)carbamoyl)-5-((((1-hydroxycyclobutyl)methyl)(methyl)amino)methyl)-1-isopropyl-1H-pyrazole-3-sulfonamide] | – | 5 to 50 nM
18 | CC(C)(O)c1cc(S(=O)(=O)NC(=O)Nc2c3c(cc4c2CCC4)CCC3)oc1CN1CCNCC1 [Example 70, N-((1,2,3,5,6,7-hexahydro-s-indacen-4-yl)carbamoyl)-4-(2-hydroxypropan-2-yl)-5-(piperazin-1-ylmethyl)furan-2-sulfonamide] | – | 5 to 50 nM
